{"source": "patent US20230416247A1", "about": "“DRUG-LIKE MOLECULES AND METHODS FOR THE THERAPEUTIC TARGETING OF MICRORNA-21” (University of Washington, priority 2020, published 2023)", "format_in_all_cases": "cell-based, human", "key": {"[1]": {"tested_on": "mature miR-21 and pre-miR-21 in AGS cells", "test": "qRT-PCR of mature miR-21 and pre-miR-21 in AGS cells", "settings": "10 nmoles, 48 hours, relative to DMSO control", "method": "FIGS. 13A-13D compare levels of mature miR-21 and pre-mi-21 measured in gastric adenocarcinoma (AGS) (FIGS. 13A and 13B, respectively) and pancreatic cancer cell line (ASPC 1) (FIGS. 13C and 13D, respectively), normalized to internal controls (U6 or U8 snRNA), in the presence of 10 nmoles of palbociclib (used here as a negative control, not expected to affect microRNA levels) and compounds −0045 and −0052, 48 hours after incubation, relative to DMSO control, and measured by standard qRT-PCR. Statistically significant changes are labeled with asterisks.\nLevels of mature miR-21 and its precursor pre-miR-21 were measured in gastric carcinoma (ASG) and pancreatic (ASPC1) cancer cell lines under conditions where we observed a decrease in proliferation (FIGS. 13A-13D), using the same blind format described above.\nCell line maintenance. Using the Cancer Cell Line Encyclopedia (CCLE), in-house cancer cell lines were screened to identify cancer and tissue types with varying levels of miR-21 expression. Experiments were performed using the human-derived cell lines AGS (gastric cancer) and AsPC-1 (pancreatic cancer). Cell lines were obtained from the American Type Culture Collection and maintained per instructions from the supplier. AGS were cultured in F12K medium supplemented with 10% FBS. AsPC-1 were cultured in RPMI, with 10% FBS added. All cells were kept at 37° C. in a humidified atmosphere of 5% CO2 and underwent regular mycoplasma testing. All experiments were conducted when cells were 70-80% confluent.\nQuantitative real time PCR analysis. RNA was isolated utilizing Trizol (Invitrogen) and the Direct-zol RNA Miniprep kit (Zymo Research). RNA concentration was assessed with the NanoDrop ND-1000 spectrophotometer (ThermoFisher Scientific). All microRNAs expression was tested in the two representative cell lines using qRT-PCR. Cells were seeded in 6-well plates 24 hours before treatment, at a cell confluency of 50-60%. Each cell line was treated with 10 μM compound or with only the dimethyl sulfoxide (DMSO) solvent. RNA was collected after the 48-hour time point. Expression of miR-21 was assessed utilizing the TaqMan microRNA assay (Applied Biosystems). The complementary DNA (cDNA) was synthesized using the TaqMan Reverse Transcription Reagents kit (Applied Biosystems) and was used with the TaqMan probes and Supermix (BioRad) for qRT-PCR analysis. U6 or U48 were used as internal controls for RNA levels. All experiments were performed in triplicate, with all samples normalized to the internal controls and relative expression levels calculated using the 2^ΔΔCt method."}, "[2]": {"tested_on": "miR-16, miR-28, miR-182 in pancreatic (ASPC1) cells", "test": "qRT-PCR of miR-16, miR-28, miR-182 in ASPC1 cells", "settings": "ASPC1, 24-72 hours post incubation, vs DMSO", "method": "Levels of each microRNA were measured at different times post incubation (24-72 hours) by standard qRT-PCR, normalized to internal controls (U6 or U8 snRNA), in both gastric (AGC) and pancreatic (ASPC1) cell lines. Levels of the microRNA are generally the same, within experimental uncertainty, in the absence (DMSO) or presence of compound −0052 (30).\nFIGS. 15A-15F show the levels of mature miR-16, miR-28, and miR-182 are not consistently affected by the compounds in both gastric (AGS) and pancreatic (ASPC1) cell lines, over multiple time scales (24-72 hours), relative to control where DMSO was added, but no compound.\nCell line maintenance. Using the Cancer Cell Line Encyclopedia (CCLE), in-house cancer cell lines were screened to identify cancer and tissue types with varying levels of miR-21 expression. Experiments were performed using the human-derived cell lines AGS (gastric cancer) and AsPC-1 (pancreatic cancer). […]\n(§1) Quantitative real time PCR analysis. […] RNA concentration was assessed with the NanoDrop ND-1000 spectrophotometer (ThermoFisher Scientific). […] Expression of miR-21 was assessed utilizing the TaqMan microRNA assay (Applied Biosystems). […] All experiments were performed in triplicate, with all samples normalized to the internal controls and relative expression levels calculated using the 2^ΔΔCt method."}, "[3]": {"tested_on": "mature miR-10b in AGS cells", "test": "qRT-PCR of mature miR-10b in AGS cells", "settings": "10 nmoles, 48 hours, relative to DMSO control", "method": "FIGS. 14A-14D compare levels of mature miR-10b and pre-miR-10b measured in gastric adenocarcinoma (AGS) (FIGS. 14A and 14B, respectively) and pancreatic cancer cell line (ASPC 1) (FIGS. 14C and 14D, respectively), normalized to internal controls (U6 or U8 snRNA), in the presence of 10 nmoles of palbociclib (a negative control not expected to directly affect miRNA levels) and compounds −0045 and −0052, 48 hours after incubation, relative to DMSO control, and measured by standard qRT-PCR. We notice that levels of pre-miR-10b are very low in both cell lines, rendering the data very uncertain. Statistically significant changes are labeled with asterisks.\nIn order to investigate whether inhibition was specific to miR-21, levels of mature miR-10b and pre-miR-10b were examined in the same cell lines (FIGS. 14A-14D); this is another oncogenic microRNA implicated in metastasis. […]\nas §1"}}}
{"smiles": "O=c1[nH]c(Nc2ccc(N3CCNCC3)cn2)nc2cccnc12", "note": "[Compound 25]", "values": [{"measurement": "decrease in mature miR-21 levels", "setting": "[1]", "result": 40, "unit": "%"}, {"measurement": "pre-miR-21 levels", "setting": "[1]", "result": "reduction in pre-miR-21 levels"}]}
{"smiles": "O=c1[nH]c(Nc2ccc(N3CCNCC3)cn2)nc2cnccc12", "note": "[Compound 30]", "values": [{"measurement": "cellular levels of miR-16, miR-28, miR-182", "setting": "[2]", "result": "does not affect cellular levels"}, {"measurement": "reduction of levels of mature miR-10b", "setting": "[3]", "result": "about 2 fold"}, {"measurement": "decrease in mature miR-21 levels", "setting": "[1]", "result": 40, "unit": "%"}, {"measurement": "pre-miR-21 levels", "setting": "[1]", "result": "reduction in pre-miR-21 levels"}]}
